Columns and labels:
[1] = Pharmacokinetic data in CD-1 mice after oral administration; format: in vivo; details: mouse, serum, Table 7: CD-1 mice, nominal dose 5.10 mg/kg Cmpd. A or 6.57-8.40 mg/kg DV salt, analyte: dosed derivative (DV)
[2] = Storage stability in acetonitrile or acetonitrile/water solution at room temperature; format: physicochemical; details: for decomposition in acetonitrile/water: crude product in acetonitrile/water, kept at room temperature overnight
Protocol: Preparatory HPLC of the crude product gave a mixture of the desired compound in addition to some Compound A (formed during the HPLC separation). After the product was treated with dichloromethane, the solution was dried over MgSO4, and was evaporated to give 15 mg of the ether derivative I-5 as an oily solid (97.7% by HPLC). After the sample was stored for 2 days at room temperature (RT) in acetonitrile solution, it had decomposed to approximately 85% purity with the main byproduct being a ring-opened form of Compound A.
(§1) 3,3-dimethylacrylic acid (96 mg, 0.96 mmol) and HATU (366 mg, 0.96 mmol) were mixed in 2 mL of DMF and 280 μL of DIPEA was added to the mixture. After the addition of Compound A (183 mg, 0.64 mmol), the mixture was stirred for 2 min. Additional DIPEA (280 μL) was added to the solution, and the yellow solution was stirred at room temperature for 2 hr. After the addition of water, the mixture was extracted with EtOAc (4×). The extract was washed with brine (4×), was dried over MgSO4, and was evaporated. […] This material was purified by prep HPLC to obtain 58 mg of II-7 (86% pure) that contained a later eluting byproduct. A sample was assayed for stability in water (63% at the 24-hour time point) and in a pH 7.4 buffer (77% at the 24 hour time point).
Geranic acid ([…], 0.96 mmol) and HATU (366 mg, 0.96 mmol) were mixed in 2 mL of DMF. Following the addition of 280 μL of DIPEA to the solution, Compound A (180 mg, 0.64 mmol) was added to the solution, and the mixture was stirred for 2 min. Additional DIPEA (280 μL) was added, and the yellow solution was stirred at room temperature for 2 hr. Following the addition of water, the mixture was extracted with EtOAc (4×). The extract was washed with brine (4×), was dried over MgSO4, and was evaporated. The crude product II-9 appeared by HPLC to be over 70% in one peak.

[3] = Stability in water and in a pH 7.4 buffer; format: physicochemical; details: after 24 hours
Protocol: A sample of the 15 mg isolated material was evaluated for stability in water and in a pH 7.4 buffer. After 24 hours, the sample in water had 86% remaining and the sample in the pH 7.4 buffer had 92% remaining. The decomposition gave mainly the ring-opened Compound A as a byproduct.
as §1

Row | SMILES | AUC(0-inf) [1] [ng·h/mL] | AUC(0-t) [1] [ng·h/mL] | Cmax [1] [ng/mL] | Tmax [1] [min] | half-life [1] [min] | decomposition in acetonitrile/water [2] | purity after storage in acetonitrile solution ([2]; stored for 2 days at room temperature in acetonitrile solution, initial 97.7% by HPLC) | remaining, stability in pH 7.4 buffer [3] [%] | remaining, stability in water [3] [%]
1 | FC(F)(F)c1ccc(COC2(c3ccc(Cl)cc3)c3ccccc3C3=NCCN32)cc1 (stereo not shown) [Compound I-14, 5-(4-chlorophenyl)-5-((4-(trifluoromethyl)benzyl)oxy)-2,5-dihydro-3H-imidazo[2,1-a]isoindole] | 215 | 183 | 56.1 | 30 | 163 | – | – | – | –
2 | CC(C)=CCC/C(C)=C/C(=O)N1CCN=C1c1ccccc1C(=O)c1ccc(Cl)cc1 [II-9, (E)-1-(2-(2-(4-chlorobenzoyl)phenyl)-4,5-dihydro-1H-imidazol-1-yl)-3,7-dimethylocta-2,6-dien-1-one] | – | – | – | – | – | complete decomposition occurred | – | – | –
3 | Clc1ccc(C2(OCC3OCCO3)c3ccccc3C3=NCCN32)cc1 (stereo not shown) [Compound I-19, 5-((1,3-dioxolan-2-yl)methoxy)-5-(4-chlorophenyl)-2,5-dihydro-3H-imidazo[2,1-a]isoindole] | – | 2.04 | 4.27 | 20 | – | – | – | – | –
4 | COC(=O)COC1(c2ccc(Cl)cc2)c2ccccc2C2=NCCN21 (stereo not shown) [Compound I-5, methyl 2-((5-(4-chlorophenyl)-2,5-dihydro-3H-imidazo[2,1-a]isoindol-5-yl)oxy)acetate] | – | – | – | – | – | – | approximately 85% | 92 | 86
5 | CC(C)/C=C/COC1(c2ccc(Cl)cc2)c2ccccc2C2=NCCN21 (stereo not shown) [Compound I-17, (E)-5-(4-chlorophenyl)-5-((4-methylpent-2-en-1-yl)oxy)-2,5-dihydro-3H-imidazo[2,1-a]isoindole] | 33.2 | 27.6 | 25.7 | 15 | 78 | – | – | – | –
6 | FC(F)(F)c1ccc(/C=C/COC2(c3ccc(Cl)cc3)c3ccccc3C3=NCCN32)cc1 (stereo not shown) [Compound I-18, (E)-5-(4-chlorophenyl)-5-((3-(4-(trifluoromethyl)phenyl)allyl)oxy)-2,5-dihydro-3H-imidazo[2,1-a]isoindole] | 792 | 677 | 187 | 30 | 237 | – | – | – | –
7 | CC(C)=CC(=O)N1CCN=C1c1ccccc1C(=O)c1ccc(Cl)cc1 [II-7, 1-(2-(2-(4-chlorobenzoyl)phenyl)-4,5-dihydro-1H-imidazol-1-yl)-3-methylbut-2-en-1-one] | – | – | – | – | – | significant decomposition occurred | – | 77 | 63

Reference: patent publication US20260028340A1 (Supernus Pharmaceuticals, Inc., priority 2023, published 2026)
